Experimental data published in US10913714B2, “Pyrrole sulfonyl derivative, preparation method and medical use thereof” (JIANGSU CAREPHAR PHARMACEUTICAL CO., LTD, priority 2015, dated 2021).
Structures can show the parent of a compound that is named as a salt.

Columns and labels:
[1] = Acute toxicity test, single gavage in rats; assay type: in vivo; details: SD rat, gavage once, observed 14 days
Experimental: Test content: single administration dosage: 2000 mg/kg, 600 mg/kg; administration by gavage: once; volume: 10 ml/kg; observing for 14 days for the rat's behavior and weight each day.
Experimental grouping: black group, Group of 600 mg/kg, Group of 2000 mg/kg; 4 rats each group; half male and half female.

H^+/K^+-ATPase = biological target: T1, H^+/K^+-ATPase (Oryctolagus cuniculus, UniProt P27112); assay: Inhibition of H+/K+-ATPase enzymatic activity (rabbit gastric mucosal microsomes, malachite green); assay type: biochemical; details: pH 6.5, 37° C. 30 min, read-out: The median inhibitory concentration (IC50) of the compound to the activity of H^+/K^+-ATPase
T1 construct: collecting the middle layer (H^+/K^+-ATPase enriched gastric membranes) into a clean centrifugal tube; from tissue; host or cells: rabbit stomach (gastric mucosal microsomes, sucrose/Ficoll gradient centrifugation)
From the text: Biological Evaluation on H^+/K^+-ATPase
The following screening assays in vitro are used to evaluate the inhibiting effect of the compound of the Invention on the enzymatic activity of H^+/K^+-ATPase. Experimental materials and instruments are as follows:
1) Rabbit gastric mucosal microsomes (enriched H^+/K^+-ATPase; extracted by the Applicant)
2) Buffer solution: 50 mmol/L HEPEs-Tris, pH=6.5, 5 mmol/L magnesium chloride, 10 μmol/L valinomycin;
3) Buffer solution: 50 mmol/L HEPEs-Tris, pH=6.5, 5 mmol/L magnesium chloride, 10 μmol/L valinomycin, 5 mmol/L potassium chloride;
4) ATP: diluting ATP to 5 mM with buffer solution 1;
5) Malachite green solution: dissolving 0.12% of malachite green in 2.5 mol/L of sulfuric acid; mixing 7.5% (V/V) of ammonium molybdate and 11% of Tween 20(V/V) in a proportion of 100:25:2;
6) The method for extracting rabbit gastric mucosal microsomes (enriched H^+/K^+-ATPase) is sucrose gradient centrifugation, i.e., washing the rabbit stomach with tap water and 3M NaCl solution respectively and removing the surface moisture with filter paper; adding the pre-cooled buffer solution (4 ml/g tissue) for homogenation in a tissue homogenizer for 2-5 min; removing the large tissue particles in a way of centrifugation (600 g, 10 mm) if any after homogenation; transferring the supernatant to a clean centrifugal tube for centrifugation for 30 min at 2000 g; then transferring the supernatant to a clean centrifugal tube for further centrifugation for 90 min at 100000 g; collecting the sediment; suspending the sediment in the homogenate and blowing it to be uniform; measuring the protein concentration with Bradford method; adjusting the concentration to 10 mg/ml; adding 7.5% Ficoll demixing fluid in an equal proportion for centrifugation for 60 min at 100000 g; collecting the middle layer (H^+/K^+-ATPase enriched gastric membranes) into a clean centrifugal tube; diluting it with 4-5 times of homogenate for further centrifugation for 90 min at 100000 g; collecting the sediment; suspending the sediment in the homogenate for homogenation with a glass homogenizer; measuring the protein concentration with Bradford method and adjusting the concentration to 22.5 mg/ml; freezing it under −80° C. for standby. Experimental Process:
Adding 5 μL of gastric mucosal microsomes (H^+/K^+-ATPase) in 45 µL of buffer solution 2; adding 5 μL of the compound solution; adding 5 μL 5 mM of ATP to start the reaction for pre-reaction at 37° C. for 30 min; adding 15 μL of malachite green solution to terminate the reaction; balancing at ambient temperature for 20 min; reading the value of absorbed light at 620 nm.
Meanwhile, conducting another reaction with the same volume without potassium chloride for background, which will be subtracted when calculating the enzymatic activity.
The value of Compound IC50 is calculated through the inhibition ratios at different concentrations.

hERG potassium channel = biological target: T2, hERG potassium channel (Homo sapiens, UniProt Q12809); assay: Whole cell patch clamp, inhibition of hERG tail current; assay type: cell-based; details: for IC50: human, hERG cells (host cell line not named), pH 7.4, whole cell patch clamp, logistic fit; for Inhibition ratio of max. test concentration (hERG current): max. test concentration 100 μM
T2 construct: expressed in transfected cells
Experimental: Test Case 2: Studies on the Effect of Compounds EXP 1, TAK-438 and EXP 12 on hERG Potassium Channel Testing System 1) Cell culture: the hERG cell is cultured in a routine way, which is subcultured in a DMEM containing 10% of fetal calf serum and 250 μg/ml of G418. 2) Fluid preparation: the composition of the extracellular fluid used in the experiment of whole cell patch clamp comprises (mM): NaCl 145, MgCl21, KCl 4, Glucose 10, HEPES 10 and CaCl22; adjusting the pH value of NaOH to 7.4 and adjusting the value of osmotic pressure to 300 mOsm with sucrose. The composition of the intracellular fluid comprises (mM):KCl 140; MgCl 21; EGTA 5; HEPES 10 and Na2ATP 4; adjusting the pH value of KOH to 7.2 and adjusting the value of osmotic pressure to 290 mOsm with sucrose.
Main composition of the extracellular and intracellular fluid
Test Procedure 1) Electrophysiological recording: taking out one culture dish for each test; cleaning it with the extracellular fluid twice and placing it on the inverted microscope stage. The experiment of whole cell patch clamp is conducted at ambient temperature; the resistance at the microelectrode tip of the used borosilicate glass is 3-5 MQ. 2) Voltage stimulus plan and current record: clamping down the membrane potential to −80 mV under the whole-cell recording mode; giving +50 mV of depolarized voltage stimulus to the cell every 30 s and lasting for 2 s, then repolarizing it to −50 mV and lasting for 3 s, thus, the tail current of hERG can be extracted. Giving 50 ms, −50 mV repolarized voltage to the cell before depolarized voltage stimulus; the current recorded at such voltage is as the base line for calculating the tail current of hERG. Only the cells meet the recording standard can be used in the test of the compounds to be tested. The hERG tail current should be recorded stably at last for 3 min in the extracellular fluid before the compound is added. After perfusion of drugs, it can be regarded that the drug effect reaches a steady state if the change of the amplitude of hERG tail current is less than 5%. If the current fails to reach a steady state in 6 min, the test should also be terminated. 3) Testing standard: the membrane resistance in the experiment should be more than 1,000 MQ. The initial current should be more than 300 pA. The series resistance should be less than 12 MQ after the whole-cell recording mode is constructed. The leakage current is less than 10% of the ionic channel current (taking −80 pA as the peak value). Data Analysis
Using Clampex 10.2 to record the original data and saving the data in the format of *abf. Using pCLAMP 10.1 to conduct data collection and analysis. Selecting 4-5 sweeps when the current is in a steady state before the compound is added; calculating the average peak value to serve as the contrasted current amplitude. Selecting 4-5 sweeps when the current is in a steady state after the compound is added; calculating the average peak value to serve as the residual amplitude of the inhibited current. The inhibition ratio of the compound to be tested to hERG current is calculated as per the equation as: % inhibition ratio={1−(current residual amplitude)/(contrasted current amplitude)}*100
After the inhibition ratio (average value±standard deviation) of the compound to be tested to the hERG current of different concentrations is obtained through the above computing method, the data with logistic equation should be fitted to obtain the value of IC50.

T2 sequence (Q12809 whole entry): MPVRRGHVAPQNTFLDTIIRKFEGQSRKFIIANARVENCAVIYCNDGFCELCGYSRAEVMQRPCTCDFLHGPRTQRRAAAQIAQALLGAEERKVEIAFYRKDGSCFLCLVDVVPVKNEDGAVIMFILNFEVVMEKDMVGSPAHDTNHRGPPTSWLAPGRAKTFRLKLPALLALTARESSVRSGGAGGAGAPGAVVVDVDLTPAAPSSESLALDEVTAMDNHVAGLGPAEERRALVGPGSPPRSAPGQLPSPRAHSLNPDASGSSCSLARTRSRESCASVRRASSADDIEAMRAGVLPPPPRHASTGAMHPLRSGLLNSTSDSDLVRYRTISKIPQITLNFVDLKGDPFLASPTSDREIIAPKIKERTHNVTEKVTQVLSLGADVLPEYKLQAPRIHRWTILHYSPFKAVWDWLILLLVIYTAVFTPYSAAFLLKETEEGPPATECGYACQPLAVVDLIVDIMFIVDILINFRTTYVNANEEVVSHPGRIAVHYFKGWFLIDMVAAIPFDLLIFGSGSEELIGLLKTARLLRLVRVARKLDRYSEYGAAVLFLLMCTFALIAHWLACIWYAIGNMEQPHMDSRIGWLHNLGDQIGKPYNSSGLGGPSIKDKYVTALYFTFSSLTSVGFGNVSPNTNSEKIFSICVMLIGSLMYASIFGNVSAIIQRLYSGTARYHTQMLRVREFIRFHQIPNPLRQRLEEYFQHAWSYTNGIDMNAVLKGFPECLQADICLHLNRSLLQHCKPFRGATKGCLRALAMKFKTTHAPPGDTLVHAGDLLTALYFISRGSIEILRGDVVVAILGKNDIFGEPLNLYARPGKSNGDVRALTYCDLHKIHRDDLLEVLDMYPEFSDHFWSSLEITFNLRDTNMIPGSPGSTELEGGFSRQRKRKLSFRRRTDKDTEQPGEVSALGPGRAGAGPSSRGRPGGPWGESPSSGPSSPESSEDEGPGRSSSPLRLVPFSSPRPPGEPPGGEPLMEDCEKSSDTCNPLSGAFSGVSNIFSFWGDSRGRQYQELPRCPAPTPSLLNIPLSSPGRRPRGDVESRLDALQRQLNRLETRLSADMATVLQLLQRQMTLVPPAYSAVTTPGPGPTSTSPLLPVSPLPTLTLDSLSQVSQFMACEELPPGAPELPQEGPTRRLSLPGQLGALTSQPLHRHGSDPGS
T1 sequence (P27112 whole entry): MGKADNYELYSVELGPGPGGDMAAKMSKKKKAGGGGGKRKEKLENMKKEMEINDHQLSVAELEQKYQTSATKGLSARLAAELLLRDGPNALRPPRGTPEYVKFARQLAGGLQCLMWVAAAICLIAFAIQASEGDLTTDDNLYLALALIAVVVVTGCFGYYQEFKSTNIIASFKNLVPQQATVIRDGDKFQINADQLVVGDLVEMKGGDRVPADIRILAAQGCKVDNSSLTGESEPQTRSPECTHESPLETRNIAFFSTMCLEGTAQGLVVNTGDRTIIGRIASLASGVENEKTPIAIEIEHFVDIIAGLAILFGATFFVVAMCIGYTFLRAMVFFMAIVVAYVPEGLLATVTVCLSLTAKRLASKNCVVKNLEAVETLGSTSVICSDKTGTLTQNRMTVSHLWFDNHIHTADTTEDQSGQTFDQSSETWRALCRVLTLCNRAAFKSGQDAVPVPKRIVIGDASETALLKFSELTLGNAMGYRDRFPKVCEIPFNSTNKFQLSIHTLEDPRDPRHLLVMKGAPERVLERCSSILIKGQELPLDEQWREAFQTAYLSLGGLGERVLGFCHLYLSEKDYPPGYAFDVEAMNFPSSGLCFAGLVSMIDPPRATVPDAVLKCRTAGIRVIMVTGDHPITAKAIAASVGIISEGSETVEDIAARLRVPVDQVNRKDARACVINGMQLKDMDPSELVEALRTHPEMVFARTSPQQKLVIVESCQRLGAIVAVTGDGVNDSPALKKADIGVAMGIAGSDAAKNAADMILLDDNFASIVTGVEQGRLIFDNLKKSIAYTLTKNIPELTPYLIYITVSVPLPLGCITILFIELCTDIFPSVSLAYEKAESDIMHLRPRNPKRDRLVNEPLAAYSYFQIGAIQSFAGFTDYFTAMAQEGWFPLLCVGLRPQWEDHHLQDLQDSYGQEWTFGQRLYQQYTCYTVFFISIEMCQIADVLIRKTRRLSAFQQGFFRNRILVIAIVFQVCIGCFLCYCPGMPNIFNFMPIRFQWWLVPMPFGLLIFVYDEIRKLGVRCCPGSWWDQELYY
T1 sequence (P18597 whole entry partner): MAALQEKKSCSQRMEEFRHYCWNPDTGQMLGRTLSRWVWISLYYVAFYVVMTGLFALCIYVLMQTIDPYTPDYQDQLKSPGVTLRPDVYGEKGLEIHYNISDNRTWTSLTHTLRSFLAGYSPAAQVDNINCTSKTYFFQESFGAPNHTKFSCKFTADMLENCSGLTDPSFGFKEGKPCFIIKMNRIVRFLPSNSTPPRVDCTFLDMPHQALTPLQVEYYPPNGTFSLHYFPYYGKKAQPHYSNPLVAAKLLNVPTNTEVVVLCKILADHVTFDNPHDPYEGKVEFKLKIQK

SMILES | Impact on the rat's weight ([1]; 600 mg/kg) | Death after single oral dose ([1]; 2000 mg/kg) | IC50 (H^+/K^+-ATPase) [µM] | IC50 (hERG potassium channel) [µM] | Inhibition ratio of max. test concentration (hERG current) (hERG potassium channel) [%] | Death after single oral dose ([1]; 600 mg/kg)
CNCc1cc(-c2ccccc2F)n(S(=O)(=O)c2cccnc2)c1 [TAK-438, 5-(2-fluorophenyl)-N-methyl-1-(3-pyridylsulfonyl)-1H-pyrrole-3-methamine fumarate] | inhibition of weight gain | all died | < 0.1 | 15.9 | 88.23 ± 3.18 | –
CNCc1cc(-c2ccccc2F)n(S(=O)(=O)c2cccc(OCCCOC)c2)c1 [EXP 1, 1-(5-(2-fluorobenzene)-1-((3-(3-methoxypropoxy)phenyl)sulfonyl)-1H-pyrrole-3-yl)-N-methyl methylamine] | not obvious | no death | < 0.1 | 18.7 | 86.21 ± 1.67 | no death
